Data published in paper PMC3671673, “In Vitro Morphological Assessment of Apoptosis Induced by Antiproliferative Constituents from the Rhizomes of Curcuma zedoaria” (Evidence-based Complementary and Alternative Medicine : eCAM, 2013).
In brackets after ≈: the same amount, converted by molar mass.

System: noncancer human lung fibroblast cell line (MRC-5)
Experiment: Neutral red cytotoxicity assay, MRC-5
Format: cell-based
Details: MRC5, isolated compounds, 72 h, mean ± SD of three replicates, read-out: IC50 (μg/mL) MRC-5
Method: The human cancer cells KB, Ca Ski, MCF-7, HCT-116, A549, and noncancer human cell lines (MRC-5) were purchased from the American Tissue Culture Collection (ATCC, USA). The supplemented RPMI 1640 media and eagle minimum essential medium (EMEM) were purchased from Sigma-Aldrich, USA. The supplements or antibiotics such as foetal bovine serum (FBS), penicillin/streptomycin (P/S) (100 μg/mL), amphotericin B (50 μg/mL), and accutase were purchased from PAA Laboratories, Austria. Sodium pyruvate (11 mg/mL) purchased from Sigma-Aldrich, USA. The cells were cultured in a SHEL LAB water-jacketed CO2 incubator with […] tissue culture flasks (Nunc, Denmark), which was observed routinely under inverted microscope (Leica DMI3000 B, Germany) for any contamination and seeded into 96-well flat bottom microtiter plate (Nunc, Denmark). The extract or pure compounds was dissolved in dimethyl sulfoxide (DMSO, Molecular Biology Grade, >99.9%) from Sigma-Aldrich, USA. Microtiter plate incubator shaker (LT Biomax 500) was used and absorbance was measured at 540 nm using an ELISA microplate reader (EMax microplate reader of Molecular Devices, USA). MCF-7 and Ca Ski were cultured in RPMI 1640 media supplemented with 10% v/v FBS, P/S, and amphotericin B and MRC-5 in EMEM media with 10% v/v FBS, P/S, amphotericin B, and sodium pyruvate. The cells were cultured in tissue culture flask in 5% CO2 incubator kept at 37°C in a humidified atmosphere and observed routinely under inverted microscope from any contaminations. Each fresh medium was replaced every 2 or 3 days until cell confluence was achieved and the cells were detached by using accutase.
The in vitro cytotoxicity activity was performed using the neutral red cytotoxicity assay based on the initial protocol as described earlier with some modifications. Briefly, cells were detached from the tissue culture flask with 1.0 mL solution of accutase and PBS solution. The cell pellet was obtained by centrifugation at 1,000 rpm for 5 minutes. The density of the viable cells was counted by 0.4% of trypan blue exclusion in a haemocytometer. Cells were then plated in 96-well microtiter plate (Nunc), at a concentration of 1 × 10^4 cells/well and incubated in a CO2 incubator at 37°C to allow the cells to adhere. After 24 h, the cells were treated with six different concentrations, that is, 1, 10, 25, 50, 75, and 100 μg/mL of each tested agent in three replicates. The plates were incubated for 72 h at 37°C in a 5% CO2 incubator. The untreated cells were regarded as a negative control, whilst cells incubated only with DMSO (0.5%, v/v) were used as a vehicle control. No effect due to the DMSO was observed. Doxorubicin was used as the positive control. After 72 h, the old medium was substituted with fresh medium containing 50 μg/mL neutral red. The 96-well plates were placed into incubator for 3 h. This is to allow the uptake of the vital dye into the lysosomes of viable and undamaged cells. Then, the media was discarded and cells were washed with 200 μL of neutral red washing solution. The dye was eluted from the cells by adding neutral red resorb solution (200 μL). The plate was further incubated for 30 min with rapid agitation on a microtiter plate shaker. The optical density (OD) of the eluted dye was read at 540 nm using a microplate reader. The experiments were conducted in triplicates. […] Cytotoxicity of each test agent is expressed as IC50 value. […]

SMILES: C=C1CCC(C(C)C)=CC2C1CC[C@@]2(C)O (some centres unmarked) [Alismol, alismol]
- IC50: > 100 µg/mL

SMILES: C=CC1(C)Cc2occ(C)c2C(=O)C1C(=C)C (centres unmarked) [Curzerenone, curzerenone]
- IC50: 20 ± 1.2 µg/mL (≈ 86.8 µM)
